Measured values: the supplement of paper PMC10307832

Legend:
Assay in all cases: relative viability (nuclei count vs DMSO), 5 days (fraction); higher = more cells survive
Darinaparsin + Dasatinib = compound: C[As](C)SC[C@H](NC(=O)CC[C@H](N)C(=O)O)C(=O)NCC(=O)O [Darinaparsin] + Cc1nc(Nc2ncc(C(=O)Nc3c(C)cccc3Cl)s2)cc(N2CCN(CCO)CC2)n1 [Dasatinib] (partner 0.075 µM)
Procedure, shortened: (§1)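 Cells from lung cancer lines were seeded into 1536-well plates and, one day later, dosed by pin tool. Treatments were either a single drug or a fixed dose of an anchor drug with five library-drug doses (not always all listed) in √10 steps. After 5 days, nuclei were stained in a one-step fixation (final 0.05% Triton X-100, 1% formaldehyde, 1 ug/ml Hoechst) and counted on 4× images, and relative viability is the treated-to-vehicle nuclei ratio, as the median of duplicate plates.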

QS11 + Trametinib = compound: C1CC2=C(C1)C=C(C=C2)OC3=NC(=C4C(=N3)N(C=N4)CC5=CC=C(C=C5)C6=CC=CC=C6)N[C@@H](CC7=CC=CC=C7)CO [QS11] + CC(=O)Nc1cccc(-n2c(=O)n(C3CC3)c(=O)c3c(Nc4ccc(I)cc4F)n(C)c(=O)c(C)c32)c1 [Trametinib] (partner 0.02 µM)
Procedure, shortened: as §1

AZ628 + Crizotinib = compound: CC1=C(C=C(C=C1)NC(=O)C2=CC(=CC=C2)C(C)(C)C#N)NC3=CC4=C(C=C3)N=CN(C4=O)C [AZ628] + C[C@@H](Oc1cc(-c2cnn(C3CCNCC3)c2)cnc1N)c1c(Cl)ccc(F)c1Cl [Crizotinib] (partner 1 µM)
Procedure, shortened: as §1

AZ628 + Luminespib = compound: CC1=C(C=C(C=C1)NC(=O)C2=CC(=CC=C2)C(C)(C)C#N)NC3=CC4=C(C=C3)N=CN(C4=O)C [AZ628] + CCNC(=O)c1noc(-c2cc(C(C)C)c(O)cc2O)c1-c1ccc(CN2CCOCC2)cc1 [Luminespib] (partner 0.01 µM)
Procedure, shortened: as §1

For LCLC-97TM1, which relative viability (Darinaparsin + Dasatinib; first compound 0.08 µM) is on record?
Its relative viability is 0.922.

And the relative viability (Darinaparsin + Dasatinib; first compound 0.8 µM)?
Its relative viability is 0.664.

And the relative viability (Darinaparsin + Dasatinib; first compound 2.53 µM)?
Its relative viability is 0.615.

What about the relative viability (Darinaparsin + Dasatinib; first compound 8 µM) of the same cell line?
The relative viability was 0.98.

And the relative viability (QS11 + Trametinib; first compound 0.253 µM)?
Its relative viability is 0.213.

And the relative viability (QS11 + Trametinib; first compound 2.53 µM)?
The relative viability was 0.223.

What about the relative viability (QS11 + Trametinib; first compound 8 µM) of the same cell line?
Its relative viability is 0.277.

What about the relative viability (AZ628 + Crizotinib; first compound 0.08 µM) of the same cell line?
The relative viability was 0.741.

What about the relative viability (AZ628 + Crizotinib; first compound 0.253 µM) of the same cell line?
The relative viability was 0.501.

What about the relative viability (AZ628 + Crizotinib; first compound 0.8 µM) of the same cell line?
Its relative viability is 0.352.

What about the relative viability (AZ628 + Crizotinib; first compound 2.53 µM) of the same cell line?
The relative viability was 0.413.

What about the relative viability (AZ628 + Crizotinib; first compound 8 µM) of the same cell line?
The relative viability was 0.205.

And the relative viability (AZ628 + Luminespib; first compound 0.08 µM)?
The relative viability was 0.804.

What about the relative viability (AZ628 + Luminespib; first compound 0.253 µM) of the same cell line?
The relative viability was 0.659.

What about the relative viability (AZ628 + Luminespib; first compound 0.8 µM) of the same cell line?
The relative viability was 0.642.

And the relative viability (AZ628 + Luminespib; first compound 2.53 µM)?
The relative viability was 0.464.

What about the relative viability (AZ628 + Luminespib; first compound 8 µM) of the same cell line?
Its relative viability is 0.287.
